Laboratory results: ChEMBL document CHEMBL3994662, “In vivo instability of platensimycin and platencin: Synthesis and biological evaluation of urea- and carbamate-platensimycin” (Bioorg Med Chem, 2017)
≈ marks a conversion by molar mass, not a printed value.

Experiments:
[1] = Volume of distribution in C57Bl/6 mouse at 3 mg/kg, iv administered as single dose by LC-MS/MS analysis; type: ADME, organism-based; conditions: in vivo
Liver [2] = test: Drug uptake in C57Bl/6 mouse liver at 10 mg/kg, iv administered as single dose measured after 60 mins by LC-MS/MS analysis; type: ADME, organism-based; conditions: in vivo, 1 h
[3] = In vivo stability in C57Bl/6 mouse urine assessed as compound hydrolysis by measuring platensic acid level at 10 mg/kg, iv administered as single dose measured after 60 mins by LC-MS/MS analysis relative to platensimycin; type: ADME, organism-based; conditions: 1 h
[4] = Drug metabolism in mouse hepatic microsomes assessed as amide hydrolysis-mediated platensic acid formation at 1 uM up to 60 mins in absence of NADPH by LC-MS/MS analysis; type: ADME, Liver, Microsome; conditions: 1 h
[5] = Drug level in C57Bl/6 mouse urine at 10 mg/kg, iv administered as single dose measured after 60 mins by LC-MS/MS analysis; type: ADME, organism-based; conditions: mouse, in vivo, 1 h
Liver [6] = test: In vivo stability in C57Bl/6 mouse liver assessed as compound hydrolysis at 10 mg/kg, iv administered as single dose measured after 60 mins by LC-MS/MS analysis; type: ADME, organism-based; conditions: 1 h
Lung [7] = test: Drug uptake in C57Bl/6 mouse lung at 10 mg/kg, iv administered as single dose measured after 60 mins by LC-MS/MS analysis; type: ADME, organism-based; conditions: in vivo, 1 h
[8] = Ratio of drug level in C57Bl/6 mouse lung to plasma at 10 mg/kg, iv administered as single dose measured after 60 mins by LC-MS/MS analysis; type: ADME, organism-based
[9] = In vivo stability in C57Bl/6 mouse adipose tissue assessed as compound hydrolysis at 10 mg/kg, iv administered as single dose measured after 60 mins by LC-MS/MS analysis; type: ADME, organism-based; conditions: 1 h
[10] = Ratio of drug level in C57Bl/6 mouse muscle to plasma at 10 mg/kg, iv administered as single dose measured after 60 mins by LC-MS/MS analysis; type: ADME, organism-based, Muscle tissue/plasma
Liver [11] = test: In vivo stability in C57Bl/6 mouse liver assessed as compound hydrolysis by measuring platensic acid level at 10 mg/kg, iv administered as single dose measured after 60 mins by LC-MS/MS analysis relative to platensimycin; type: ADME, organism-based; conditions: 1 h
[12] = Drug metabolism in mouse hepatic microsomes assessed as glucuronidation of carboxylic acid at 1 uM up to 60 mins in absence of NADPH by LC-MS/MS analysis; type: ADME, Liver, Microsome; conditions: 1 h
Brain [13] = test: Drug uptake in C57Bl/6 mouse brain at 10 mg/kg, iv administered as single dose measured after 60 mins by LC-MS/MS analysis; type: ADME, organism-based; conditions: in vivo, 1 h
[14] = Ratio of drug level in C57Bl/6 mouse urine to plasma at 10 mg/kg, iv administered as single dose measured after 60 mins by LC-MS/MS analysis; type: ADME, organism-based; conditions: in vivo, 1 h
[15] = Elimination half life in C57Bl/6 mouse at 10 mg/kg, po administered as single dose via gavage by LC-MS/MS analysis; type: ADME, organism-based; conditions: in vivo, read-out: beta t1/2 (converted)
[16] = Drug metabolism in mouse hepatic microsomes assessed as hydroxylation at 1 uM up to 60 mins in absence of NADPH by LC-MS/MS analysis; type: ADME, Liver, Microsome; conditions: 1 h
Staphylococcus aureus = test: Antibacterial activity against Staphylococcus aureus ATCC 25923 after 18 hrs by broth dilution method; type: functional; conditions: ATCC 25923, 18 h
Mus musculus [17] = test: AUC (0 to 8 hrs) in C57Bl/6 mouse at 3 mg/kg, iv administered as single dose by LC-MS/MS analysis; type: ADME, organism-based; set-up: dose 3 mg/kg, time < 8 hr, route intravenous; conditions: in vivo
[18] = Elimination half life in C57Bl/6 mouse at 3 mg/kg, iv administered as single dose by LC-MS/MS analysis; type: ADME, organism-based; conditions: in vivo, read-out: beta t1/2 (converted)
[19] = In vivo stability in C57Bl/6 mouse muscle assessed as compound hydrolysis at 10 mg/kg, iv administered as single dose measured after 60 mins by LC-MS/MS analysis; type: ADME, organism-based, Muscle tissue; conditions: 1 h
[20] = Ratio of drug level in C57Bl/6 mouse liver to plasma at 10 mg/kg, iv administered as single dose measured after 60 mins by LC-MS/MS analysis; type: ADME, organism-based
Brain [21] = test: In vivo stability in C57Bl/6 mouse brain assessed as compound hydrolysis at 10 mg/kg, iv administered as single dose measured after 60 mins by LC-MS/MS analysis; type: ADME, organism-based; conditions: 1 h
[22] = Cmax in C57Bl/6 mouse at 10 mg/kg, po administered as single dose via gavage by LC-MS/MS analysis; type: ADME, organism-based; set-up: dose 10 mg/kg, route oral; conditions: in vivo
Plasma [23] = test: Drug uptake in C57Bl/6 mouse plasma at 10 mg/kg, iv administered as single dose measured after 60 mins by LC-MS/MS analysis; type: ADME, organism-based; conditions: in vivo, 1 h
[24] = Cmax in C57Bl/6 mouse at 3 mg/kg, iv administered as single dose by LC-MS/MS analysis; type: ADME, organism-based; set-up: dose 3 mg/kg, route intravenous; conditions: in vivo
[25] = Drug uptake in C57Bl/6 mouse adipose tissue at 10 mg/kg, iv administered as single dose measured after 60 mins by LC-MS/MS analysis; type: ADME, organism-based; conditions: in vivo, 1 h
Plasma [26] = test: In vivo stability in C57Bl/6 mouse plasma assessed as compound hydrolysis by measuring platensic acid level at 10 mg/kg, iv administered as single dose measured after 60 mins by LC-MS/MS analysis relative to platensimycin; type: ADME, organism-based; conditions: 1 h
[27] = Drug metabolism in mouse hepatic microsomes assessed as amide hydrolysis-mediated platensic acid formation at 1 uM up to 60 mins in presence of NADPH by LC-MS/MS analysis; type: ADME, Liver, Microsome; conditions: 1 h
[28] = Ratio of drug level in C57Bl/6 mouse adipose tissue to plasma at 10 mg/kg, iv administered as single dose measured after 60 mins by LC-MS/MS analysis; type: ADME, organism-based
[29] = Apparent permeability by PAMPA; type: physicochemical
[30] = In vivo stability in C57Bl/6 mouse urine assessed as compound hydrolysis at 10 mg/kg, iv administered as single dose measured after 60 mins by LC-MS/MS analysis; type: ADME, organism-based; conditions: 1 h
Kidney [31] = test: Drug uptake in C57Bl/6 mouse kidney at 10 mg/kg, iv administered as single dose measured after 60 mins by LC-MS/MS analysis; type: ADME, organism-based; conditions: in vivo, 1 h
[32] = Intrinsic clearance in mouse hepatic microsomes at 1 uM up to 60 mins by LC-MS/MS analysis; type: ADME, Microsome; conditions: liver microsomes, read-out: CLH
[33] = Plasma concentration in C57Bl/6 mouse at 3 mg/kg, iv administered as single dose measured after 2 hrs by LC-MS/MS analysis; type: ADME, organism-based
Kidney [34] = test: In vivo stability in C57Bl/6 mouse kidney assessed as compound hydrolysis by measuring platensic acid level at 10 mg/kg, iv administered as single dose measured after 60 mins by LC-MS/MS analysis relative to platensimycin; type: ADME, organism-based; conditions: 1 h
Mus musculus [35] = test: AUC (0 to 8 hrs) in C57Bl/6 mouse at 10 mg/kg, po administered as single dose via gavage by LC-MS/MS analysis; type: ADME, organism-based; set-up: time < 8 hr, dose 10 mg/kg, route oral; conditions: in vivo
Lung [36] = test: In vivo stability in C57Bl/6 mouse lung assessed as compound hydrolysis at 10 mg/kg, iv administered as single dose measured after 60 mins by LC-MS/MS analysis; type: ADME, organism-based; conditions: 1 h
[37] = Observed clearance in C57Bl/6 mouse at 3 mg/kg, iv administered as single dose by LC-MS/MS analysis; type: ADME, organism-based; conditions: in vivo
Plasma [38] = test: In vivo stability in C57Bl/6 mouse plasma assessed as compound hydrolysis at 10 mg/kg, iv administered as single dose measured after 60 mins by LC-MS/MS analysis; type: ADME, organism-based; conditions: 1 h
[39] = Oral bioavailability in C57Bl/6 mouse at 10 mg/kg administered as single dose via gavage by LC-MS/MS analysis; type: ADME, organism-based; conditions: in vivo
[40] = Drug uptake in C57Bl/6 mouse muscle at 10 mg/kg, iv administered as single dose measured after 60 mins by LC-MS/MS analysis; type: ADME, organism-based, Muscle tissue; conditions: in vivo, 1 h
Kidney [41] = test: In vivo stability in C57Bl/6 mouse kidney assessed as compound hydrolysis at 10 mg/kg, iv administered as single dose measured after 60 mins by LC-MS/MS analysis; type: ADME, organism-based; conditions: 1 h
[42] = Ratio of drug level in C57Bl/6 mouse kidney to plasma at 10 mg/kg, iv administered as single dose measured after 60 mins by LC-MS/MS analysis; type: ADME, organism-based
Micrococcus luteus = test: Antibacterial activity against Micrococcus luteus ATCC 9431 after 18 hrs by broth dilution method; type: functional; conditions: ATCC 9431, 18 h

- Vd [1]: 0.9 L/kg
- Drug uptake (Liver [2]): Active
- fold change (FC) [3]: 0.0005
- Drug metabolism [4]: Metabolite_Detected
- Drug uptake [5]: Active
- Stability (Liver [6]): Unstable
- Drug uptake (Lung [7]): Active
- Kp at 1 h [8]: 0.5
- Stability [9]: Stable
- Kp at 1 h [10]: 0.1
- fold change (FC) (Liver [11]): 0.04
- Drug metabolism [12]: Metabolite_Detected
- Drug uptake (Brain [13]): Not Active
- Ratio [14]: 3790
- half-life [15]: 3.2 h
- Drug metabolism [16]: Metabolite_Detected
- MIC (Staphylococcus aureus): 0.5 µg/mL (≈ 1.13 µM)
- AUC (Mus musculus [17]): 10 µM·h
- half-life [18]: 3.5 h
- Stability [19]: Stable
- Kp at 1 h [20]: 6.2
- Stability (Brain [21]): Stable
- Cmax [22]: 2100 nM
- Drug uptake (Plasma [23]): Active
- Cmax [24]: 20000 nM
- Drug uptake [25]: Active
- fold change (FC) (Plasma [26]): 0.1
- Drug metabolism [27]: Metabolite_Detected
- Kp at 1 h [28]: 0.1
- Papp [29]: 1.3 ×10⁻⁷ cm/s
- Stability [30]: Unstable
- Drug uptake (Kidney [31]): Active
- microsomal CLint at 1 µM [32]: 13.6 µL/min/mg
- concentration at 2 h [33]: 10 nM
- fold change (FC) (Kidney [34]): 0.2
- AUC (Mus musculus [35]): 1.5 µM·h
- Stability (Lung [36]): Stable
- clearance [37]: 16 mL/min/kg
- Stability (Plasma [38]): Unstable
- bioavailability [39]: 4.4%
- Drug uptake [40]: Active
- Stability (Kidney [41]): Unstable
- Kp at 1 h [42]: 0.5
- MIC (Micrococcus luteus): 0.5 µg/mL (≈ 1.13 µM)
Structure (SMILES): C[C@]12C[C@@]34C=CC(=O)[C@@](C)(CCC(=O)Nc5c(O)ccc(C(=O)O)c5O)[C@@H]3[C@H](C[C@@H]1C4)O2
